The supplement of paper PMC11208160

Assay: recombinant UMI read abundance after kanamycin selection (control-corrected) (log10(CPM+1)); higher = more efficient recombination; extreme values may be limits of the assay; sequences stand for … in AGTGCAGAGAAAATCGGCCAGTTTTCTCTGCCTGCAGTCCGCATGCCGTGGGACCCCTTGGGTTCTAACCTGTTGCCTAGATTTATGCAGCGGACTGCCTTTCTCCCAAAGTGATAAACCGG…AGGTTGGTTTCACT; site = the 11-nt donor
Outline: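 Sequenced counts of recombinant UMIs were turned into CPM, averaged across replicates and scaled with control-derived factors. The reported figure is log10(CPM+1). Those UMIs, each 12 nt long, tagged donor and donor-binding-loop pairs on a plasmid with a promoterless kanamycin gene, screened as a pool in Escherichia coli with IPTG (0.07 mM) plus kanamycin or without selection.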
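Note: IS621 bridge recombinase in Escherichia coli cells against a fixed T5 target plasmid.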

| Sequence | recombinant UMI read abundance (log10) |
| --- | --- |
| ACTCCAACATGGACCGGTTTTCCCGGTAATCCGTATTTGTC (site ACTCCAACTGA) | 1.34 |
| ACTCCAGCATGGACCGGTTTTCCCGGTAATCCGTATTTGAT (site ACTCCAGCTAT) | 2.13 |
| ACTCGCCCATGGACCGGTTTTCCCGGTAATCCGTATTTGTT (site ACTCGCCCTAA) | 1.08 |
| ACTCGTGCATGGACCGGTTTTCCCGGTAATCCGTATTTGGT (site ACTAGTGCTAC) | 0.43 |
| ACTCGTGCATGGACCGGTTTTCCCGGTAATCCGTATTTGGT (site ACTCGTGCTAC) | 1.07 |
| ACTCGTGCATGGACCGGTTTTCCCGGTAATCCGTATTTGGT (site ACTGGTGCTAC) | 0.222 |
| ACTCGTGCATGGACCGGTTTTCCCGGTAATCCGTATTTGGT (site ACTTGTGCTAC) | 0.839 |
| ACTCTCCCATGGACCGGTTTTCCCGGTAATCCGTATTTGAT (site ACTCTCCCTAT) | 0.628 |
| ACTCTCTCATGGACCGGTTTTCCCGGTAATCCGTATTTGCA (site ACTCTCTCTTG) | 3.19 |
| ACTGATGCATGGACCGGTTTTCCCGGTAATCCGTATTTGGC (site ACTGATGCTGC) | 1.81 |
| ACTGCTACATGGACCGGTTTTCCCGGTAATCCGTATTTGAA (site ACTGCTACTTT) | 0.749 |
| ACTGGTGCATGGACCGGTTTTCCCGGTAATCCGTATTTGGT (site ACTAGTGCTAC) | 1 |
| ACTGGTGCATGGACCGGTTTTCCCGGTAATCCGTATTTGGT (site ACTCGTGCTAC) | 0.414 |
| ACTGGTGCATGGACCGGTTTTCCCGGTAATCCGTATTTGGT (site ACTGGTGCTAC) | 1.69 |
| ACTGGTGCATGGACCGGTTTTCCCGGTAATCCGTATTTGGT (site ACTTGTGCTAC) | 0.401 |
| ACTGTAACATGGACCGGTTTTCCCGGTAATCCGTATTTGCT (site AATGTAACTAG) | 0.987 |
| ACTGTAACATGGACCGGTTTTCCCGGTAATCCGTATTTGCT (site ACTGTAACTAG) | 2.23 |
| ACTGTAACATGGACCGGTTTTCCCGGTAATCCGTATTTGCT (site AGTGTAACTAG) | 1.12 |
| ACTGTAACATGGACCGGTTTTCCCGGTAATCCGTATTTGCT (site ATTGTAACTAG) | 1.55 |
| ACTGTGTCATGGACCGGTTTTCCCGGTAATCCGTATTTGCA (site ACAGTATCTTG) | 2.5 |
| ACTGTGTCATGGACCGGTTTTCCCGGTAATCCGTATTTGCA (site ACTGTGTCTTG) | 2.89 |
| ACTTAACCATGGACCGGTTTTCCCGGTAATCCGTATTTGCA (site ACTTAACCTTG) | 0 |
| ACTTAGACATGGACCGGTTTTCCCGGTAATCCGTATTTGGG (site ACATAGACTCC) | 0.0123 |
| ACTTAGACATGGACCGGTTTTCCCGGTAATCCGTATTTGGG (site ACCTAGACTCC) | 0.00452 |
| ACTTAGACATGGACCGGTTTTCCCGGTAATCCGTATTTGGG (site ACGTAGACTCC) | 0.00655 |
| ACTTAGACATGGACCGGTTTTCCCGGTAATCCGTATTTGGG (site ACTTAGACTCC) | 0.0876 |
| ACTTCGTCATGGACCGGTTTTCCCGGTAATCCGTATTTGTG (site ACTTCGTCTCA) | 0.306 |
| ACTTCTACATGGACCGGTTTTCCCGGTAATCCGTATTTGTG (site ACATCTACTCA) | 0.0153 |
| ACTTCTACATGGACCGGTTTTCCCGGTAATCCGTATTTGTG (site ACCTCTACTCA) | 0.00536 |
